Assay results: US12122776B2, “Tetracyclic compounds and uses thereof” (Gilead Sciences, Inc., priority 2020, dated 2024)
Like-named read-outs stand apart in the source and are kept apart here.

Legend:
Type in all cases: cell-based
HIV-1 (IIIB) = assay: Antiviral assay in MT-4 cells; conditions: Human immunodeficiency virus 1, MT4, 120 h; replication of HIV-1 (IIIB) in MT-4 cells, 5 days incubation, Cell Titer Glo
Procedure: Example 24: HIV MT-4 Antiviral and Cytotoxicity Assay
Antiviral Assay in MT-4 Cells
Compounds were tested in a high-throughput 384-well assay format for their ability to inhibit the replication of HIV-1 (IIIB) in MT-4 cells. Compounds were serially diluted (1:3) in DMSO on 384-well polypropylene plates and further diluted 200-fold into complete RPMI media (10% FBS, 1% P/S) using the Biotek Micro Flow and Labcyte ECHO acoustic dispenser. Each plate contained up to 8 test compounds, with negative (No Drug Control) and 5 μM AZT positive controls. MT-4 cells were pre-infected with 10 μL of either RPMI (mock-infected) or a fresh 1:250 dilution of HIV-1 IIIB concentrated virus stock. Infected and uninfected MT-4 cells were further diluted in complete RPMI media and added to each plate using a Micro Flow dispenser. After 5 days incubation in a humidified and temperature controlled incubator (37° C.), Cell Titer Glo (Promega) was added to the assay plates and chemiluminescence read using an Envision plate-reader. EC50 values were defined as the compound concentration that causes a 50% decrease in luminescence signal, and were calculated using a sigmoidal dose-response model to generate curve fits.

[1] = Cytotoxicity assay in MT-4 cells; conditions: human; uninfected MT-4 cells, 5 days incubation, Cell Titer Glo
Procedure: Cytotoxicity Assay in MT-4 Cells Assays were performed as above except uninfected MT-4 cells were added to each well containing test compound. In addition, 10 μM puromycin was added to the last column of each assay plate to assess a base level of cytotoxicity.

pLai RLuc reporter virus = assay: HIV MT-4 serum shift antiviral reporter assay; conditions: Human immunodeficiency virus 1, MT4, 72 h
Procedure: Example 25: HIV MT-4 Serum Shift Antiviral Reporter Assay
To quantify the amount of protein binding to human serum, compounds were serially diluted (1:3) in DMSO and acoustically transferred onto 384-well assay plates via a Labcyte ECHO robot. Each plate contained up to 8 test compounds, including negative and positive controls, (DMSO, 5 μM AZT respectively). Assay plates were prepared in duplicate, and tested in either CCM (cell culture media) or HS/CCM (human serum/cell culture media). MT-4 cells were first pre-infected with pLai RLuc reporter virus for 2 h at 37° C., then further diluted in either CCM (RPMI media, 10% FBS, 1% P/S) or HS/CCM (RPMI media, 10% FBS, 50% HS, 1% P/S), and subsequently added to each plate using a Biotek Micro Flow dispenser. After a 72-h incubation in a humidified and temperature controlled incubator (37° C.), Renilla Glo (Promega) was added to all assay plates and chemiluminescence read using an Envision plate-reader. EC50 values were defined as the compound concentration that causes a 50% decrease in luminescence signal, and were calculated using a sigmoidal dose-response model to generate curve fits. To determine the amount of protein binding, EC50 fold shifts (or EC50 shifts) were calculated by dividing EC50 (HS/CCM)/EC50 (CCM).

[2] = read-out: Antiviral Serum Shift RLuc 50% HS
[3] = read-out: Antiviral Serum Shift RLuc CCM

| SMILES | EC50 (HIV-1 (IIIB)) [nM] | CC50 at 5 days [1] [nM] | EC50 (pLai RLuc reporter virus; [2]) [nM] | EC50 (pLai RLuc reporter virus; [3]) [nM] |
| --- | --- | --- | --- | --- |
| O=C1c2c(O)c(=O)c(-c3nnc(Cc4c(F)cc(F)cc4F)s3)c3n2C2(CCCCN1C2)CC3 (stereo not drawn) [Compound 7, 11-hydroxy-9-(5-(2,4,6-trifluorobenzyl)-1,3,4-thiadiazol-2-yl)-3,4,5,6,7,8-hexahydro-2,6a-methano[1,4]diazonino[9,1,2-cd]indolizine-1,10-dione] | 3.8 | 3800 | 60.8 | 0.997 |
| O=C(NCc1ccc(F)cc1F)c1c2n3c(c(O)c1=O)C(=O)N1CCCC[C@@]3(CC2)C1 [Compound 3, (6aR)—N-(2,4-difluorobenzyl)-11-hydroxy-1,10-dioxo-1,3,4,5,6,7,8,10-octahydro-2,6a-methano[1,4]diazonino[9,1,2-cd]indolizine-9-carboxamide] | 1.78 | 4940 | 3.11 | 0.175 |
| C[C@@]1(O)C[C@]23CCCCN(C2)C(=O)c2c(O)c(=O)c(C(=O)NCc4c(F)cc(F)cc4F)c1n23 [Compound 17, (6aR,8R)-8,11-dihydroxy-8-methyl-1,10-dioxo-N-(2,4,6-trifluorobenzyl)-1,3,4,5,6,7,8,10-octahydro-2,6a-methano[1,4]diazonino[9,1,2-cd]indolizine-9-carboxamide] | 1.2 | 3170 | 1.1 | 0.13 |
| O=C(NCc1ccc(F)c(Cl)c1F)c1c2n3c(c(O)c1=O)C(=O)N1CCCC[C@@]3(C[C@H]2O)C1 (single isomer, unassigned) [Compound 14-1] | 1.1 | 2310 | 26 | 0.22 |
| O=C(NCc1cccc(Cl)c1F)c1c2n3c(c(O)c1=O)C(=O)N1CCCC[C@@]3(CC2)C1 [Compound 5, (6aR)—N-(3-chloro-2-fluorobenzyl)-11-hydroxy-1,10-dioxo-1,3,4,5,6,7,8,10-octahydro-2,6a-methano[1,4]diazonino[9,1,2-cd]indolizine-9-carboxamide] | 2.24 | 4040 | 6.04 | 0.278 |
| O=C(NCc1c(F)cc(F)cc1F)c1c2n3c(c(O)c1=O)C(=O)N1CCCC[C@]3(C1)[C@@H](O)[C@@H]2O (single isomer, unassigned) [Compound 11-4] | 4.02 | 50000 | 20.5 | 1.02 |
| O=C(NCc1ccc(F)cc1F)c1c2n3c(c(O)c1=O)C(=O)N1CCCC[C@@]3(C[C@@H]2O)C1 (single isomer, unassigned) [Compound 10-4] | 2.47 | 4610 | 3.3 | 0.405 |
| O=C(NCc1ccc(F)cc1F)c1c2n3c(c(O)c1=O)C(=O)N1CCCC[C@]3(CC2)C1 [Compound 4, (6aS)—N-(2,4-difluorobenzyl)-11-hydroxy-1,10-dioxo-1,3,4,5,6,7,8,10-octahydro-2,6a-methano[1,4]diazonino[9,1,2-cd]indolizine-9-carboxamide] | 3.09 | 5140 | 32.3 | 0.72 |
| CO[C@@H]1C[C@@]23CCCCN(C2)C(=O)c2c(O)c(=O)c(C(=O)NCc4c(F)cc(F)cc4F)c1n23 (single isomer, unassigned) [Compound 12-1] | 1.54 | 9690 | 16.9 | 0.77 |
| O=C(NCc1ccc(F)cc1F)c1c2n3c(c(O)c1=O)C(=O)N1CCCC[C@]3(C[C@H]2O)C1 (single isomer, unassigned) [Compound 10-1] | 4.98 | 9560 | 121 | 0.715 |
| C[C@]1(O)C[C@@]23CCCCN(C2)C(=O)c2c(O)c(=O)c(C(=O)NCc4c(F)cc(F)cc4F)c1n23 (single isomer, unassigned) [Compound 15] | 1.2 | 3730 | 51 | 0.29 |
| O=C(NCc1c(F)cc(F)cc1F)c1c2n3c(c(O)c1=O)C(=O)N1CCCC[C@]3(C[C@@H]2O)C1 (single isomer, unassigned) [Compound 9-3] | 1.06 | 6310 | 28.5 | 0.384 |
| CO[C@H]1CC[C@H](C)N2C[C@]13CCc1c(C(=O)NCc4c(F)cc(F)cc4F)c(=O)c(O)c(n13)C2=O [Compound 23-2, (3S,6S,6aR)-11-hydroxy-6-methoxy-3-methyl-1,10-dioxo-N-(2,4,6-trifluorobenzyl)-1,3,4,5,6,7,8,10-octahydro-2,6a-methano[1,4]diazonino[9,1,2-cd]indolizine-9-carboxamide] | 2.5 | 14100 | 21 | 0.46 |
| O=C(NCc1c(F)cc(F)cc1F)c1c2n3c(c(O)c1=O)C(=O)N1CCCC[C@@]3(C1)[C@H](O)[C@H]2O (single isomer, unassigned) [Compound 11-1] | 4 | 50000 | 3.91 | 1.16 |
| O=C(NCc1ccc(F)c(Cl)c1F)c1c2n3c(c(O)c1=O)C(=O)N1CCCC[C@@]3(C[C@@H]2O)C1 (single isomer, unassigned) [Compound 14-2] | 0.73 | 2110 | 11 | 0.41 |
| O=C(NCc1c(F)cc(F)cc1F)c1c2n3c(c(O)c1=O)C(=O)N1CCCC[C@@]3(CC2CO)C1 (stereo partly drawn) [Compound 18, (6aR)-11-hydroxy-8-(hydroxymethyl)-1,10-dioxo-N-(2,4,6-trifluorobenzyl)-1,3,4,5,6,7,8,10-octahydro-2,6a-methano[1,4]diazonino[9,1,2-cd]indolizine-9-carboxamide] | 10.7 | 25200 | 0.97 | 0.87 |
| O=C(NCc1c(F)cc(F)cc1F)c1c2n3c(c(O)c1=O)C(=O)N1CCCC[C@]3(C[C@H]2O)C1 (single isomer, unassigned) [Compound 9-1] | 3.06 | 8080 | 200 | 0.685 |
| O=C(NCc1c(F)cc(F)cc1F)c1c2n3c(c(O)c1=O)C(=O)N1CCCC[C@@]3(C[C@H]2O)C1 (single isomer, unassigned) [Compound 9-2] | 1.23 | 5170 | 34.1 | 0.347 |
